PubChem BioAssay AID1963449 (Molecular Pharmacology Branch, DTP, NCI, 2024)

Test system: 596521-263-R-J1-PDC complex spheroid growth
Assay: Anticancer human tumor 596521-263-R-J1-PDC patient-derived soft tissue sarcoma cell line growth inhibition [Asc]
Settings: for IC50: curve of first compound; for viability, T/C: stronger effect = lower value
In short: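 Complex spheroids combining tumor cells with HUVEC endothelial cells and human MSCs, at 37 degrees C, 5% CO2; agents tested alone or combined, half-log dilutions from at or near clinical Cmax, or 10 microM if Cmax unknown.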
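Further: spheroids exposed to compounds for 7 days.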

IC50 (second compound 0.00316 µM): > 10 µM | IC50 (second compound 0.01 µM): > 10 µM | IC50 (second compound 0.0316 µM): > 10 µM | IC50 (second compound 0.1 µM): > 10 µM | IC50 (second compound 0.316 µM): > 10 µM | IC50 (second compound 1 µM): > 10 µM
Structure (SMILES): C#Cc1c(F)ccc2cc(O)cc(-c3ncc4c(N5CC6CCC(C5)N6)nc(OCC56CCCN5CC(F)C6)nc4c3F)c12 (configuration not stated) + CNC(C)C(=O)NC1CN(S(=O)(=O)c2cccc(S(=O)(=O)N3CCC4CCC(C(=O)NC(c5ccccc5)c5ccccc5)N4C(=O)C(NC(=O)C(C)NC)C3)c2)CCC2CCC(C(=O)NC(c3ccccc3)c3ccccc3)N2C1=O
viability, T/C (second compound 0.00316 µM, first compound 0.0316 µM): 93.7% | viability, T/C (second compound 0.00316 µM, first compound 0.1 µM): 89.4% | viability, T/C (second compound 0.00316 µM, first compound 0.316 µM): 87.3% | viability, T/C (second compound 0.00316 µM, first compound 1 µM): 105% | viability, T/C (second compound 0.00316 µM, first compound 3.16 µM): 94.6% | viability, T/C (second compound 0.00316 µM, first compound 10 µM): 81.8% | viability, T/C (second compound 0.01 µM, first compound 0.0316 µM): 99.4% | viability, T/C (second compound 0.01 µM, first compound 0.1 µM): 106% | viability, T/C (second compound 0.01 µM, first compound 0.316 µM): 86.7% | viability, T/C (second compound 0.01 µM, first compound 1 µM): 92.9% | viability, T/C (second compound 0.01 µM, first compound 3.16 µM): 97.1% | viability, T/C (second compound 0.01 µM, first compound 10 µM): 64.4% | viability, T/C (second compound 0.0316 µM, first compound 0.0316 µM): 90.2% | viability, T/C (second compound 0.0316 µM, first compound 0.1 µM): 87.1% | viability, T/C (second compound 0.0316 µM, first compound 0.316 µM): 99.6% | viability, T/C (second compound 0.0316 µM, first compound 1 µM): 102% | viability, T/C (second compound 0.0316 µM, first compound 3.16 µM): 90.6% | viability, T/C (second compound 0.0316 µM, first compound 10 µM): 61.1% | viability, T/C (second compound 0.1 µM, first compound 0.0316 µM): 91.5% | viability, T/C (second compound 0.1 µM, first compound 0.1 µM): 70.6% | viability, T/C (second compound 0.1 µM, first compound 0.316 µM): 83.5% | viability, T/C (second compound 0.1 µM, first compound 1 µM): 80% | viability, T/C (second compound 0.1 µM, first compound 3.16 µM): 84% | viability, T/C (second compound 0.1 µM, first compound 10 µM): 72.3% | viability, T/C (second compound 0.316 µM, first compound 0.0316 µM): 80.3% | viability, T/C (second compound 0.316 µM, first compound 0.1 µM): 82.8% | viability, T/C (second compound 0.316 µM, first compound 0.316 µM): 91.2% | viability, T/C (second compound 0.316 µM, first compound 1 µM): 94.8% | viability, T/C (second compound 0.316 µM, first compound 3.16 µM): 78.7% | viability, T/C (second compound 0.316 µM, first compound 10 µM): 62.5% | viability, T/C (second compound 1 µM, first compound 0.0316 µM): 74.7% | viability, T/C (second compound 1 µM, first compound 0.1 µM): 74.5% | viability, T/C (second compound 1 µM, first compound 0.316 µM): 81.2% | viability, T/C (second compound 1 µM, first compound 1 µM): 92.6% | viability, T/C (second compound 1 µM, first compound 3.16 µM): 83.3% | viability, T/C (second compound 1 µM, first compound 10 µM): 58.7%
